± gives the expanded uncertainty stated by the source.
Test: xn = mol fraction of the nth substance listed
Details: 293.15 K, Liquid

CCOS(=O)(=O)[O-].CCn1cc[n+](C)c1 [1-ethyl-3-methylimidazolium ethyl sulfate] + CCO
mass density (100 kPa, x1 = 0.05056): 860.03 ± 0.66 kg/m3 | mass density (100 kPa, x1 = 0.103): 917.84 ± 0.57 kg/m3 | mass density (100 kPa, x1 = 0.1247): 939.1 ± 0.5 kg/m3 | mass density (100 kPa, x1 = 0.2126): 1007.62 ± 0.47 kg/m3 | mass density (100 kPa, x1 = 0.2919): 1055.3 ± 0.5 kg/m3 | mass density (100 kPa, x1 = 0.3185): 1069.32 ± 0.52 kg/m3 | mass density (100 kPa, x1 = 0.4198): 1112.7 ± 0.6 kg/m3 | mass density (100 kPa, x1 = 0.4847): 1135.13 ± 0.62 kg/m3 | mass density (100 kPa, x1 = 0.5713): 1160.59 ± 0.66 kg/m3 | mass density (100 kPa, x1 = 0.6827): 1187.41 ± 0.71 kg/m3 | mass density (100 kPa, x1 = 0.7919): 1208.95 ± 0.75 kg/m3 | mass density (100 kPa, x1 = 0.9317): 1230.93 ± 0.8 kg/m3 | mass density (2500 kPa, x1 = 0.05056): 861.91 ± 0.71 kg/m3 | mass density (2500 kPa, x1 = 0.103): 919.6 ± 0.6 kg/m3 | mass density (2500 kPa, x1 = 0.1247): 940.76 ± 0.55 kg/m3 | mass density (2500 kPa, x1 = 0.2126): 1009.27 ± 0.47 kg/m3 | mass density (2500 kPa, x1 = 0.2919): 1056.61 ± 0.53 kg/m3 | mass density (2500 kPa, x1 = 0.3185): 1070.62 ± 0.55 kg/m3 | mass density (2500 kPa, x1 = 0.4198): 1113.96 ± 0.63 kg/m3 | mass density (2500 kPa, x1 = 0.4847): 1136.31 ± 0.68 kg/m3 | mass density (2500 kPa, x1 = 0.5713): 1161.75 ± 0.73 kg/m3 | mass density (2500 kPa, x1 = 0.6827): 1188.51 ± 0.79 kg/m3 | mass density (2500 kPa, x1 = 0.7919): 1210 ± 1 kg/m3 | mass density (2500 kPa, x1 = 0.9317): 1231.9 ± 0.9 kg/m3 | mass density (5000 kPa, x1 = 0.05056): 863.83 ± 0.76 kg/m3 | mass density (5000 kPa, x1 = 0.103): 921.37 ± 0.62 kg/m3 | mass density (5000 kPa, x1 = 0.1247): 942.46 ± 0.57 kg/m3 | mass density (5000 kPa, x1 = 0.2126): 1010.81 ± 0.47 kg/m3 | mass density (5000 kPa, x1 = 0.2919): 1058.04 ± 0.55 kg/m3 | mass density (5000 kPa, x1 = 0.3185): 1071.98 ± 0.58 kg/m3 | mass density (5000 kPa, x1 = 0.4198): 1115.24 ± 0.68 kg/m3 | mass density (5000 kPa, x1 = 0.4847): 1137.55 ± 0.74 kg/m3 | mass density (5000 kPa, x1 = 0.5713): 1162.92 ± 0.81 kg/m3 | mass density (5000 kPa, x1 = 0.6827): 1189.64 ± 0.88 kg/m3 | mass density (5000 kPa, x1 = 0.7919): 1211.08 ± 0.95 kg/m3 | mass density (5000 kPa, x1 = 0.9317): 1232.97 ± 1 kg/m3 | mass density (10000 kPa, x1 = 0.05056): 867.52 ± 0.86 kg/m3 | mass density (10000 kPa, x1 = 0.103): 924.78 ± 0.67 kg/m3 | mass density (10000 kPa, x1 = 0.1247): 945.77 ± 0.6 kg/m3 | mass density (10000 kPa, x1 = 0.2126): 1013.8 ± 0.5 kg/m3 | mass density (10000 kPa, x1 = 0.2919): 1060.8 ± 0.6 kg/m3 | mass density (10000 kPa, x1 = 0.3185): 1074.68 ± 0.64 kg/m3 | mass density (10000 kPa, x1 = 0.4198): 1117.75 ± 0.79 kg/m3 | mass density (10000 kPa, x1 = 0.4847): 1139.97 ± 0.87 kg/m3 | mass density (10000 kPa, x1 = 0.5713): 1165.25 ± 0.97 kg/m3 | mass density (10000 kPa, x1 = 0.6827): 1191.86 ± 1.1 kg/m3 | mass density (10000 kPa, x1 = 0.7919): 1213.21 ± 1.2 kg/m3 | mass density (10000 kPa, x1 = 0.9317): 1235.05 ± 1.3 kg/m3 | mass density (15000 kPa, x1 = 0.05056): 871.06 ± 0.97 kg/m3 | mass density (15000 kPa, x1 = 0.103): 928.08 ± 0.72 kg/m3 | mass density (15000 kPa, x1 = 0.1247): 948.96 ± 0.63 kg/m3 | mass density (15000 kPa, x1 = 0.2126): 1016.71 ± 0.5 kg/m3 | mass density (15000 kPa, x1 = 0.2919): 1063.5 ± 0.7 kg/m3 | mass density (15000 kPa, x1 = 0.3185): 1077.32 ± 0.71 kg/m3 | mass density (15000 kPa, x1 = 0.4198): 1120.22 ± 0.91 kg/m3 | mass density (15000 kPa, x1 = 0.4847): 1142.34 ± 1 kg/m3 | mass density (15000 kPa, x1 = 0.5713): 1167.52 ± 1.2 kg/m3 | mass density (15000 kPa, x1 = 0.6827): 1194.04 ± 1.3 kg/m3 | mass density (15000 kPa, x1 = 0.7919): 1215.31 ± 1.5 kg/m3 | mass density (15000 kPa, x1 = 0.9317): 1237.08 ± 1.6 kg/m3 | mass density (20000 kPa, x1 = 0.05056): 874.47 ± 1.1 kg/m3 | mass density (20000 kPa, x1 = 0.103): 931.25 ± 0.76 kg/m3 | mass density (20000 kPa, x1 = 0.1247): 952.04 ± 0.65 kg/m3 | mass density (20000 kPa, x1 = 0.2126): 1019.53 ± 0.52 kg/m3 | mass density (20000 kPa, x1 = 0.2919): 1066.12 ± 0.73 kg/m3 | mass density (20000 kPa, x1 = 0.3185): 1079.89 ± 0.8 kg/m3 | mass density (20000 kPa, x1 = 0.4198): 1122.63 ± 1.1 kg/m3 | mass density (20000 kPa, x1 = 0.4847): 1144.68 ± 1.2 kg/m3 | mass density (20000 kPa, x1 = 0.5713): 1169.75 ± 1.4 kg/m3 | mass density (20000 kPa, x1 = 0.6827): 1196.18 ± 1.6 kg/m3 | mass density (20000 kPa, x1 = 0.7919): 1217.38 ± 1.7 kg/m3 | mass density (20000 kPa, x1 = 0.9317): 1239.09 ± 1.9 kg/m3 | mass density (25000 kPa, x1 = 0.05056): 877.74 ± 1.2 kg/m3 | mass density (25000 kPa, x1 = 0.103): 934.32 ± 0.8 kg/m3 | mass density (25000 kPa, x1 = 0.1247): 955.03 ± 0.67 kg/m3 | mass density (25000 kPa, x1 = 0.2126): 1022.26 ± 0.54 kg/m3 | mass density (25000 kPa, x1 = 0.2919): 1068.67 ± 0.8 kg/m3 | mass density (25000 kPa, x1 = 0.3185): 1082.37 ± 0.89 kg/m3 | mass density (25000 kPa, x1 = 0.4198): 1124.97 ± 1.2 kg/m3 | mass density (25000 kPa, x1 = 0.4847): 1146.94 ± 1.4 kg/m3 | mass density (25000 kPa, x1 = 0.5713): 1171.93 ± 1.6 kg/m3 | mass density (25000 kPa, x1 = 0.6827): 1198.27 ± 1.8 kg/m3 | mass density (25000 kPa, x1 = 0.7919): 1219.4 ± 2 kg/m3 | mass density (25000 kPa, x1 = 0.9317): 1241.05 ± 2.2 kg/m3 | mass density (30000 kPa, x1 = 0.05056): 880.91 ± 1.3 kg/m3 | mass density (30000 kPa, x1 = 0.103): 937.28 ± 0.84 kg/m3 | mass density (30000 kPa, x1 = 0.1247): 957.93 ± 0.69 kg/m3 | mass density (30000 kPa, x1 = 0.2126): 1024.93 ± 0.57 kg/m3 | mass density (30000 kPa, x1 = 0.2919): 1071.18 ± 0.88 kg/m3 | mass density (30000 kPa, x1 = 0.3185): 1084.82 ± 0.98 kg/m3 | mass density (30000 kPa, x1 = 0.4198): 1127.27 ± 1.4 kg/m3 | mass density (30000 kPa, x1 = 0.4847): 1149.19 ± 1.6 kg/m3 | mass density (30000 kPa, x1 = 0.5713): 1174.07 ± 1.8 kg/m3 | mass density (30000 kPa, x1 = 0.6827): 1200.33 ± 2.1 kg/m3 | mass density (30000 kPa, x1 = 0.7919): 1221.4 ± 2.3 kg/m3 | mass density (30000 kPa, x1 = 0.9317): 1242.97 ± 2.5 kg/m3 | mass density (35000 kPa, x1 = 0.05056): 883.98 ± 1.4 kg/m3 | mass density (35000 kPa, x1 = 0.103): 940.18 ± 0.87 kg/m3 | mass density (35000 kPa, x1 = 0.1247): 960.74 ± 0.7 kg/m3 | mass density (35000 kPa, x1 = 0.2126): 1027.53 ± 0.61 kg/m3 | mass density (35000 kPa, x1 = 0.2919): 1073.62 ± 0.97 kg/m3 | mass density (35000 kPa, x1 = 0.3185): 1087.22 ± 1.1 kg/m3 | mass density (35000 kPa, x1 = 0.4198): 1129.54 ± 1.6 kg/m3 | mass density (35000 kPa, x1 = 0.4847): 1151.37 ± 1.8 kg/m3 | mass density (35000 kPa, x1 = 0.5713): 1176.19 ± 2 kg/m3 | mass density (35000 kPa, x1 = 0.6827): 1202.37 ± 2.3 kg/m3 | mass density (35000 kPa, x1 = 0.7919): 1223.38 ± 2.5 kg/m3 | mass density (35000 kPa, x1 = 0.9317): 1244.9 ± 2.8 kg/m3

From the NIST ThermoML archive (doi:10.1021/je900414p)
